Results as given in ChEMBL document CHEMBL1144189, “Novel and potent oxazolidinone antibacterials featuring 3-indolylglyoxamide substituents” (Bioorg Med Chem Lett, 2008).
Converted amounts (≈) assume the structure as drawn.

Columns and labels:
Enterococcus faecalis [1] = experiment: Antibacterial activity against vancomycin-susceptible Enterococcus faecalis DRCC 034; format: functional
Enterococcus faecalis [2] = experiment: Antibacterial activity against vancomycin-resistant Enterococcus faecalis DRCC 153; format: functional
Enterococcus faecium = experiment: Antibacterial activity against vancomycin-resistant Enterococcus faecium DRCC 154; format: functional
Staphylococcus aureus [3] = experiment: Antibacterial activity against methicillin-resistant Staphylococcus aureus DRCC 019; format: functional
Haemophilus influenzae = experiment: Antibacterial activity against beta-lactamase deficient Haemophilus influenzae DRCC 433; format: functional
Staphylococcus aureus [4] = experiment: Antibacterial activity against methicillin-susceptible Staphylococcus aureus DRCC 035; format: functional
Enterococcus faecalis [5] = experiment: Antibacterial activity against linezolid-resistant Enterococcus faecalis DRCC 632; format: functional
Staphylococcus aureus [6] = experiment: Antibacterial activity against linezolid-resistant Staphylococcus aureus DRCC 564; format: functional
Staphylococcus aureus [7] = experiment: Antibacterial activity against Staphylococcus aureus DRCC 035 infected mouse systemic infection model administered orally for 1 day at 1 and 5 hrs post-infection and measured daily for 5 days; format: functional; conditions: po
Moraxella catarrhalis = experiment: Antibacterial activity against beta-lactamase deficient Moraxella catarrhalis DRCC 300; format: functional
[8] = Tmax in Swiss albino mouse at 10 mg/kg, po; format: ADME, organism-based; design: dose 10 mg/kg, route oral; conditions: in vivo
[9] = Cmax in Swiss albino mouse at 10 mg/kg, po; format: ADME, organism-based; design: dose 10 mg/kg, route oral; conditions: in vivo
[10] = Drug elimination in Swiss albino mouse at 10 mg/kg, po; format: ADME, organism-based; design: dose 10 mg/kg, route oral; conditions: in vivo
[11] = AUC (0 to t) in Swiss albino mouse at 10 mg/kg, po; format: ADME, organism-based; design: dose 10 mg/kg, route oral; conditions: plasma
[12] = Half life in Swiss albino mouse at 10 mg/kg, po; format: ADME, organism-based; design: dose 10 mg/kg, route oral; conditions: in vivo

Row | Structure (SMILES) | MIC (Enterococcus faecalis [1]) [µg/mL] | MIC (Enterococcus faecalis [2]) [µg/mL] | MIC (Enterococcus faecium) [µg/mL] | MIC (Staphylococcus aureus [3]) [µg/mL] | MIC (Haemophilus influenzae) [µg/mL] | MIC (Staphylococcus aureus [4]) [µg/mL] | MIC (Enterococcus faecalis [5]) [µg/mL] | MIC (Staphylococcus aureus [6]) [µg/mL] | ED50 (Staphylococcus aureus [7]) [mg/kg] | MIC (Moraxella catarrhalis) [µg/mL] | Tmax [8] [h] | Cmax [9] [ng/mL] | k el [10] [s⁻¹] | AUC(0-t) [11] [ng·h/mL] | half-life [12] [h]
1 | COc1ccc2[nH]cc(C(=O)C(=O)N3CCN(c4ccc(N5C[C@H](CNC(C)=O)OC5=O)cc4F)CC3)c2c1 | 1 (≈ 1.86 µM) | 0.5 (≈ 0.93 µM) | 1 (≈ 1.86 µM) | 1 (≈ 1.86 µM) | > 32 | 2 (≈ 3.72 µM) |  |  |  |  |  |  |  |  | 
2 | COC(=S)NC[C@H]1CN(c2ccc(N3CCN(C(=O)C(=O)c4c[nH]c5ccc(Br)cc45)CC3)c(F)c2)C(=O)O1 | 1 (≈ 1.62 µM) | 0.5 (≈ 0.808 µM) | 1 (≈ 1.62 µM) | 1 (≈ 1.62 µM) | > 32 | 1 (≈ 1.62 µM) | 2 (≈ 3.23 µM) | 2 (≈ 3.23 µM) | > 30 | 1 (≈ 1.62 µM) |  |  |  |  | 
3 | COC(=O)NC[C@H]1CN(c2ccc(N3CCN(C(=O)C(=O)c4c[nH]c5ccc(Br)cc45)CC3)c(F)c2)C(=O)O1 | 1 (≈ 1.66 µM) | 0.5 (≈ 0.83 µM) | 1 (≈ 1.66 µM) | 0.5 (≈ 0.83 µM) | > 32 | 1 (≈ 1.66 µM) | 32 (≈ 53.1 µM) | 16 (≈ 26.6 µM) |  | 2 (≈ 3.32 µM) |  |  |  |  | 
4 | O=C(C(=O)N1CCN(c2ccc(N3C[C@H](CNC(=O)C4CC4)OC3=O)cc2F)CC1)c1c[nH]c2ccc(Br)cc12 | 2 (≈ 3.27 µM) | 1 (≈ 1.63 µM) | 2 (≈ 3.27 µM) | 2 (≈ 3.27 µM) | > 32 | 1 (≈ 1.63 µM) | 8 (≈ 13.1 µM) | 8 (≈ 13.1 µM) | 18.9 | 4 (≈ 6.53 µM) | 2 | 300 | 0.000169 | 1260 | 1.13
5 | O=C(C(=O)N1CCN(c2ccc(N3C[C@H](CNC(=O)C(Cl)Cl)OC3=O)cc2F)CC1)c1c[nH]c2ccc(Br)cc12 | 1 (≈ 1.53 µM) | 0.25 (≈ 0.381 µM) | 0.5 (≈ 0.763 µM) | 1 (≈ 1.53 µM) | > 32 | 1 (≈ 1.53 µM) | 4 (≈ 6.1 µM) | 4 (≈ 6.1 µM) | > 30 | 2 (≈ 3.05 µM) |  |  |  |  | 
6 | O=C(C(=O)N1CCN(c2ccc(N3C[C@H](Cn4ccnn4)OC3=O)cc2F)CC1)c1c[nH]c2ccc(Br)cc12 | 1 (≈ 1.68 µM) | 0.5 (≈ 0.838 µM) | 0.5 (≈ 0.838 µM) | 0.5 (≈ 0.838 µM) | > 32 | 2 (≈ 3.35 µM) | 16 (≈ 26.8 µM) | 8 (≈ 13.4 µM) | 28.9 | 4 (≈ 6.71 µM) |  |  |  |  | 
7 | O=C(C(=O)N1CCN(c2ccc(N3C[C@H](COc4ccon4)OC3=O)cc2F)CC1)c1c[nH]c2ccc(Br)cc12 | 32 (≈ 52.3 µM) | 32 (≈ 52.3 µM) | > 32 | 32 (≈ 52.3 µM) | > 32 | > 32 | 32 (≈ 52.3 µM) | 32 (≈ 52.3 µM) |  | 32 (≈ 52.3 µM) |  |  |  |  | 
8 | CC(=O)NC[C@H]1CN(c2ccc(N3CCN(C(=O)C(=O)c4c[nH]c5ccc(C#N)cc45)CC3)c(F)c2)C(=O)O1 | 1 (≈ 1.88 µM) | 0.5 (≈ 0.939 µM) | 1 (≈ 1.88 µM) | 1 (≈ 1.88 µM) | > 32 | 1 (≈ 1.88 µM) |  |  | > 30 |  | 3 | 430 | 0.000161 | 1900 | 1.19
9 | CC(=O)NC[C@H]1CN(c2ccc(N3CCN(C(=O)C(=O)c4c[nH]c5ccc([N+](=O)[O-])cc45)CC3)c(F)c2)C(=O)O1 | 1 (≈ 1.81 µM) | 1 (≈ 1.81 µM) | 2 (≈ 3.62 µM) | 1 (≈ 1.81 µM) | > 32 | 2 (≈ 3.62 µM) |  |  |  |  |  |  |  |  | 
10 | CC(=O)NC[C@H]1CN(c2ccc(N3CCN(C(=O)C(=O)c4c(C)[nH]c5ccccc45)CC3)c(F)c2)C(=O)O1 | 1 (≈ 1.92 µM) | 1 (≈ 1.92 µM) | 2 (≈ 3.83 µM) | 1 (≈ 1.92 µM) | > 32 | 2 (≈ 3.83 µM) |  |  |  |  |  |  |  |  | 
11 | CC(=O)NC[C@H]1CN(c2ccc(N3CCN(C(=O)C(=O)c4cn(C)c5ccccc45)CC3)c(F)c2)C(=O)O1 | 1 (≈ 1.92 µM) | 1 (≈ 1.92 µM) | 2 (≈ 3.83 µM) | 1 (≈ 1.92 µM) | > 32 | 2 (≈ 3.83 µM) |  |  |  |  |  |  |  |  | 
12 | CC(=O)NC[C@H]1CN(c2ccc(N3CCN(C(=O)C(=O)c4c[nH]c5ncccc45)CC3)c(F)c2)C(=O)O1 | 1 (≈ 1.97 µM) | 0.5 (≈ 0.983 µM) | 1 (≈ 1.97 µM) | 1 (≈ 1.97 µM) | > 32 | 2 (≈ 3.93 µM) |  |  | > 30 |  | 0.5 | 1050 | 0.000219 | 3360 | 0.87
13 | CC(=O)NC[C@H]1CN(c2ccc(N3CCN(C(=O)C(=O)c4c[nH]c5ccc(Br)cc45)CC3)c(F)c2)C(=O)O1 | 1 (≈ 1.71 µM) | 0.5 (≈ 0.853 µM) | 1 (≈ 1.71 µM) | 0.5 (≈ 0.853 µM) | > 32 | 1 (≈ 1.71 µM) | 8 (≈ 13.6 µM) | 8 (≈ 13.6 µM) | 27 | 2 (≈ 3.41 µM) | 2 | 680 | 8.89e-05 | 2250 | 2.17
14 | CC(=S)NC[C@H]1CN(c2ccc(N3CCN(C(=O)C(=O)c4c[nH]c5ccc(Br)cc45)CC3)c(F)c2)C(=O)O1 | 0.5 (≈ 0.83 µM) | 0.12 (≈ 0.199 µM) | 0.25 (≈ 0.415 µM) | 0.25 (≈ 0.415 µM) | > 32 | 0.5 (≈ 0.83 µM) | 2 (≈ 3.32 µM) | 2 (≈ 3.32 µM) | > 30 | 2 (≈ 3.32 µM) |  |  |  |  | 
15 | O=C(C(=O)N1CCN(c2ccc(N3C[C@H](CNC(=O)C(F)F)OC3=O)cc2F)CC1)c1c[nH]c2ccc(Br)cc12 | 1 (≈ 1.61 µM) | 0.25 (≈ 0.402 µM) | 0.5 (≈ 0.803 µM) | 1 (≈ 1.61 µM) | > 32 | 2 (≈ 3.21 µM) | 4 (≈ 6.43 µM) | 4 (≈ 6.43 µM) | > 30 | 2 (≈ 3.21 µM) |  |  |  |  | 
16 | CC(=O)NC[C@H]1CN(c2ccc(N3CCN(C(=O)C(=O)c4c[nH]c5ccccc45)CC3)c(F)c2)C(=O)O1 | 1 (≈ 1.97 µM) | 1 (≈ 1.97 µM) | 1 (≈ 1.97 µM) | 1 (≈ 1.97 µM) | 16 (≈ 31.5 µM) | 1 (≈ 1.97 µM) |  |  | 19.4 |  |  |  |  |  | 
17 | CC(=O)NC[C@H]1CN(c2ccc(N3CCOCC3)c(F)c2)C(=O)O1 [LINEZOLID] |  |  | 2 (≈ 5.93 µM) | 1 (≈ 2.96 µM) | 8 (≈ 23.7 µM) |  | 32 (≈ 94.9 µM) | 32 (≈ 94.9 µM) | 5.3 | 4 (≈ 11.9 µM) | 0.25 | 6310 | 0.000142 | 11000 | 1.37
